{"source": "patent US20180193361A1", "about": "“GUT ANTI-INFLAMMATORY AGENTS FOR REGULATION OF HIGH BLOOD GLUCOSE LEVELS” (UNIVERSITY HEALTH NETWORK, priority 2015, published 2018)", "key": {"[1]": {"test_system": "intestinal epithelial barrier", "assay": "Gut permeability assay (FD4)", "assay_type": "in vivo, mice", "settings": "HFD vs HFD 5-ASA, 12-16 weeks of diet, 4 hours after gavage", "description": "We measured gut permeability in overnight fasted mice 4 hours after oral gavage with 0.4 mg/g of FITC-conjugated dextran (Sigma) as described (Dong et al., 2014)."}, "[2]": {"test_system": "Lck-Cre PPARγfl/fl T cells", "assay": "In vitro IFNγ secretion, T cells lacking PPARγ (Lck-Cre PPARγfl/fl)", "assay_type": "cell-based, mice", "settings": "HFD-fed Lck-Cre+ PPARγfl/fl vs WT, 5-ASA in vitro 0.01-1 mM", "description": "Mice. Mice were fed either NCD (15 kcal % fat) or HFD (Research Diets, 60 kcal % fat, irradiated) starting at 6 weeks of age. All studies were performed under the approval of Animal User Protocols by the Animal Care Committee at the University Health Network. Mice were maintained in a pathogen-free, temperature-controlled environment on a 12-hour light and dark cycle. All mice used in comparative studies were male, age-matched, and litter mates where possible. […] We confirmed T cell-specific floxing of the PPARγ gene in Lck-Cre+ PPARγfl/fl mice by qPCR with a minimum of at least 90% reduction in PPARγ expression. […] To measure the effect of IFNγ on tight-junction gene expression, we treated MODE-K cells with recombinant mouse IFNγ (Biolegend). We purified bulk dendritic cells and T cells from murine small bowels and spleens using a negative selection DC or T cell isolation kit (Stem Cell Technologies). We plated T cells at 5×10^5 cells/well with plate-bound anti-CD3/CD28 (1 μg/ml, Biolegend). […] We collected supernatants for cytokine measurements after 72 hour incubation. […] We measured serum cytokines by Luminex Multiplex cytokine assay (Millipore, run by the UHN Microarray Center), and quantified IL-10 and IFN-γ in supernatants of anti-CD3/CD28-stimulated splenocytes or bowel immune cells (Winer et al., 2009b) by ELISA (Biolegend)."}, "[3]": {"test_system": "oral tolerance to OVA antigen", "assay": "Oral tolerance studies (OVA)", "assay_type": "in vivo, mice", "settings": "HFD 5-ASA vs HFD", "description": "We administered oral ovalbumin (OVA) in the form of drinking water (1 mg/mL) for 7 days to NCD-, HFD- or HFD 5-ASA-fed mice to induce oral tolerance. Average consumption was similar across different groups, at 5 mL per day. Following oral tolerance induction, we immunized animals with or without oral tolerance induction subcutaneously with OVA/CFA (50 μg per side) on both sides of the chest. Axillary draining lymph nodes and VAT were collected 7 days following immunization and subjected to immunological analysis, including OVA323-339/I-A^b tetramer staining and OVA-induced cytokine production and proliferation in vitro. Briefly, we processed axillary lymph nodes into single-cell suspension through a 70 μm filter and cultured the cells (5×10^5/well) in 96-well U-bottom plate with indicated concentrations of OVA (Sigma). We collected culture supernatants at 48 h for determination of IL-2 and IFNγ via ELISA (Biolegend). To measure OVA-specific antibody responses, we performed ELISA by plating diluted serum samples (1:200-1:4000) onto OVA-coated ELISA plates (10 μg/mL), followed by biotinylated anti-mouse isotype-specific secondary antibodies (1:5000 dilution) (Southern Biotech) and HRP-conjugated streptavidin (Biolegend). To measure-OVA-specific Tregs, we stained VAT immune cells with a 1:200 dilution of PE-conjugated OVA323-339/I-A^b or control hCLIP/I-A^b tetramers (NIH Tetramer Core Facility) in FBS-supplemented RPM-I for 4 hours at 37° C., followed by antibody staining for other surface antigens and Foxp3."}, "[4]": {"test_system": "gluconeogenesis enzyme and adipogenesis-related genes", "assay": "q-PCR of gluconeogenesis and adipogenesis genes, HFD or HFD 5-ASA mice", "assay_type": "in vivo", "excerpt": "We extracted total RNA from isolated or cultured cells using a RNeasy Mini Kit (Qiagen), and for subcutaneous adipose tissue (SAT) and VAT we used a RNeasy Lipid Extraction kit (Qiagen). We reverse-transcribed the RNA by random primers with M-MLV (Invitrogen). We performed q-PCR with a 7900HT PCR system (Applied Biosystems) using SYBR® Green master mix reagent (Applied Biosystems). We assessed expression of adipocyte P2 (aP2), CCAAT/enhancer-binding protein-α (CEBPα), Peroxisome proliferator-activated receptor-γ (PPARγ), and sterol regulatory element-binding protein (SREBP) cDNA. […] We calculated relative fold changes in gene expression normalized to 18s or GAPDH by the ΔΔCT method using the equation 2-ΔΔCT. The results are shown as fold changes compared to the control group."}, "small bowel T cells": {"test_system": "small bowel T cells", "assay": "In vitro IFNγ secretion, anti-CD3/CD28-activated small bowel T cells", "assay_type": "cell-based", "settings": "T cells from HFD-fed WT mice, 72 hour; 5-ASA 0.1 mM; rosiglitazone 0.1, 1 and 10 μM", "description": "To measure the effect of IFNγ on tight-junction gene expression, we treated MODE-K cells with recombinant mouse IFNγ (Biolegend). We purified bulk dendritic cells and T cells from murine small bowels and spleens using a negative selection DC or T cell isolation kit (Stem Cell Technologies). We plated T cells at 5×10^5 cells/well with plate-bound anti-CD3/CD28 (1 μg/ml, Biolegend). […] We collected supernatants for cytokine measurements after 72 hour incubation. […] After 24 hours, we washed the cells with PBS and co-cultured them (1×10^4 cells/well) with OVA323-339 peptide and OT-II splenic or small bowel T cells (5×10^4 cells/well) for 48 hours. Supernatants were collected at 48 hours for cytokine measurement. We measured serum cytokines by Luminex Multiplex cytokine assay (Millipore, run by the UHN Microarray Center), and quantified IL-10 and IFN-γ in supernatants of anti-CD3/CD28-stimulated splenocytes or bowel immune cells (Winer et al., 2009b) by ELISA (Biolegend)."}}}
{"compound": "Nc1ccc(O)c(C(=O)O)c1", "note": "[5-ASA, 5-aminosalicylic acid]", "values": [{"measurement": "intestinal epithelial barrier permeability (plasma FD4)", "setting": "[1]", "value": "significant improvements"}, {"measurement": "suppressive effects on IFNγ with loss of PPARγ in T cells", "setting": "[2]", "value": "abrogated"}, {"measurement": "OVA-specific IgA", "setting": "[3]; oral OVA then OVA-CFA immunization", "value": "nearly threefold increase"}, {"measurement": "antigen-specific Tregs to OVA in VAT", "setting": "[3]; OVA/I-Ab tetramers", "value": "nearly fourfold increase"}, {"measurement": "OVA-specific T cell-derived IFNγ", "setting": "[3]; draining lymph nodes", "value": "reduction"}, {"measurement": "OVA-specific T cell-derived IL-2", "setting": "[3]; draining lymph nodes", "value": "reduction"}, {"measurement": "gluconeogenesis enzyme gene expression", "setting": "[4]; HFD vs HFD 5-ASA 1500 mg/kg/day", "value": "could not detect significant changes"}, {"measurement": "expression of adipogenesis-related genes", "setting": "[4]; VAT or SAT, HFD 5-ASA relative to HFD, 18 weeks of diet", "value": "no effects"}, {"measurement": "IFNγ production", "setting": "small bowel T cells", "value": "significantly reduced"}]}
